The nature of series [1]: Oral bioavailability in Sprague-Dawley rat at 1 mg/kg, iv and 2 mg/kg, po. To be noted: in vivo. It counts as ADME, organism-based.
Series [2] deals with T1, Sphingosine 1-phosphate receptor 4 (Homo sapiens, UniProt O95977).
T1 sequence (O95977 whole entry): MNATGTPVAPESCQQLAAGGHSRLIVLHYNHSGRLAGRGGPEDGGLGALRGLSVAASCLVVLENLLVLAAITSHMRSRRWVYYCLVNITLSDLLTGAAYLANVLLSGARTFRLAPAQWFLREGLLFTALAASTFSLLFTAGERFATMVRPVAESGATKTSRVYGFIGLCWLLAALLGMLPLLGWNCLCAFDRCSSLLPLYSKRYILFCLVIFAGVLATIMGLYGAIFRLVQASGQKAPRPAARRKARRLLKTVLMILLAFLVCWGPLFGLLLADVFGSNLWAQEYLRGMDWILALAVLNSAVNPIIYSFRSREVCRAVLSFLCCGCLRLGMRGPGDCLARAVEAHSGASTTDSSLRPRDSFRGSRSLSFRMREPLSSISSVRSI
Nature of the series: Displacement of [33P]S1P from human S1P4 receptor expressed in CHO cells. It counts as cell-based.

Series [3] has as its target Sphingosine 1-phosphate receptor 3 (Homo sapiens, UniProt Q99500). Nature of the series: Displacement of [33P]S1P from human S1P3 receptor expressed in CHO cells. It counts as cell-based.
The target in series [4] is Sphingosine 1-phosphate receptor 1 (Homo sapiens, UniProt P21453). Nature of the series: Displacement of [33P]S1P from human S1P1 receptor expressed in CHO cells. It counts as cell-based.
Sequence of Sphingosine 1-phosphate receptor 1 (P21453 whole entry): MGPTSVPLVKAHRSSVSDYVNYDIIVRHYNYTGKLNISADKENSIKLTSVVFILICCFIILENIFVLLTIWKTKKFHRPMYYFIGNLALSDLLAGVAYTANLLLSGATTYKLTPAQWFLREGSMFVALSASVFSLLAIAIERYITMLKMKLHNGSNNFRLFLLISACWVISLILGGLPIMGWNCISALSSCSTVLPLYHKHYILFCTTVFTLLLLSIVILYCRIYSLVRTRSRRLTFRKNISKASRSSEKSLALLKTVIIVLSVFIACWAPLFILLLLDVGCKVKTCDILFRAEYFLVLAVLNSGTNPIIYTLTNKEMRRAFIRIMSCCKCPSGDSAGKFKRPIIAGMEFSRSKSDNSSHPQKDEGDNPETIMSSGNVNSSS
Series [5] has as its system PBL. Nature of the series: Reduction in peripheral blood lymphocyte count in mouse at 10 mg/kg, po relative to control. It counts as functional. Further details: scale not given: the % may be the effect or the level left.
For series [6], the target named is Sphingosine 1-phosphate receptor 2 (Homo sapiens, UniProt O95136). Nature of the series: Displacement of [33P]S1P from human S1P2 receptor expressed in CHO cells. It counts as cell-based.
Sequence of Sphingosine 1-phosphate receptor 2 (O95136 whole entry): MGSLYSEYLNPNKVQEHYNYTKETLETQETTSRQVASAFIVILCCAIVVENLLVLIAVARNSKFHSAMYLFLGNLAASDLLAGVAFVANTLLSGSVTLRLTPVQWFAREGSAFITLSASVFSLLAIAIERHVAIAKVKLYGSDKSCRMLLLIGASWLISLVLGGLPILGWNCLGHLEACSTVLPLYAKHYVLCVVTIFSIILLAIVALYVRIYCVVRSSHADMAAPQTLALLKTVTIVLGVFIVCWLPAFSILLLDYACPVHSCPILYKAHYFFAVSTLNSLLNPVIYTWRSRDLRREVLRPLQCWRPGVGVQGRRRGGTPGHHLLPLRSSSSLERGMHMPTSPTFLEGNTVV
In series [7] the target is Sphingosine 1-phosphate receptor 5 (Homo sapiens, UniProt Q9H228). Nature of the series: Displacement of [33P]S1P from human S1P5 receptor expressed in CHO cells. It counts as cell-based.
Sequence of Sphingosine 1-phosphate receptor 5 (Q9H228 whole entry): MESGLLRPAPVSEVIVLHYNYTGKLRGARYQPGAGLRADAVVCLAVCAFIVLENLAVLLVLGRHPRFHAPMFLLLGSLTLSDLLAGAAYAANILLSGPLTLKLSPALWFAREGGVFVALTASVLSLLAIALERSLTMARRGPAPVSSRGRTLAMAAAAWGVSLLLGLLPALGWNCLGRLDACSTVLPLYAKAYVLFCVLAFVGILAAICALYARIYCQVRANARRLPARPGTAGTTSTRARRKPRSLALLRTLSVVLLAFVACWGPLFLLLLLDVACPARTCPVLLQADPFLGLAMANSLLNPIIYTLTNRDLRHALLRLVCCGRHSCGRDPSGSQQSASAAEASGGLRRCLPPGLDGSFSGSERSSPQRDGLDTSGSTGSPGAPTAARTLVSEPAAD
Series [8] deals with PBL. Nature of the series: […] of peripheral blood lymphocyte in mouse at 1 mg/kg, po. It counts as functional, organism-based. Further details: dose 1 mg/kg.
Series [9] can be described thus: Half life in Sprague-Dawley rat at 1 mg/kg, iv and 2 mg/kg, po. It counts as ADME, organism-based. To be noted: in vivo.
A short description of series [10]: Volume of distribution in Sprague-Dawley rat at 1 mg/kg, iv and 2 mg/kg, po. The settings on record: in vivo, read-out: Vss. It counts as ADME, organism-based.
Series [11] can be described thus: Clearance in Sprague-Dawley rat at 1 mg/kg, iv and 2 mg/kg, po. It counts as ADME, organism-based. To be noted: in vivo.
Series [12] concerns PBL. Nature of the series: […] of peripheral blood lymphocyte in orally dosed mouse. It counts as functional, organism-based.

Structures are written as SMILES. Active and inactive are the calls of the source. The calls are words filed in the database; no cut-off is given here.

Sequence of Sphingosine 1-phosphate receptor 3 (Q99500 whole entry): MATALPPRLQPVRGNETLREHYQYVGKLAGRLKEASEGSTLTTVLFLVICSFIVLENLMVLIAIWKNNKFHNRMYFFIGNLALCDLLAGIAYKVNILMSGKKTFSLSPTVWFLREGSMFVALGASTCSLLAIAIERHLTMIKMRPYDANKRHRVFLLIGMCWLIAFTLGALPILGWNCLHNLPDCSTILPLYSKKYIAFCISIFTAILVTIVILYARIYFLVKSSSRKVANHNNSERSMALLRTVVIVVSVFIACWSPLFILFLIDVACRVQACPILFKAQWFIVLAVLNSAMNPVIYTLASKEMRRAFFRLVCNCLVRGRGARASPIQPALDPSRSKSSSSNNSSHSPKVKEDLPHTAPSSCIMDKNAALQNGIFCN

In series [1], `CC(C)Cc1ccc(-c2nc(-c3ccc(CN4CC(C(=O)O)C4)cc3)no2)cc1` showed a bioavailability of 67%.
In the case of `O=C(O)CC1CNC(c2ccc(OCc3cc(-c4ccccc4)c(C(F)(F)F)s3)cc2)C1` (stereo not given), the IC50 is 0.39 µM in series [2]; 2.1 µM in series [3]; 0.0022 µM in [4]; greater than 10 µM in series [6]; 0.39 µM in [7]. Besides, in series [5], the Activity came out at 39%.
`O=C(O)C1CNC(c2ccc(OCc3cc(-c4ccccc4)c(C(F)(F)F)s3)cc2)C1` (stereo not given): the 50% inhibitory concentration (IC50) in series [2] is 2.7 µM; in series [3], 4.8 µM; in series [4], 0.025 µM; in series [6] it was greater than 10 µM; in series [7] it was 0.13 µM.
`O=C(O)C[C@@H]1CN[C@@H](c2ccc(-c3noc(-c4ccc(C5CCC(F)(F)CC5)cc4)n3)cc2)C1` (relative stereo): the outcome in series [8] and in series [12] was Active. The molecule further gave a half-life in [9] of 4.4 h. The IC50 was 0.11 µM in series [2]; 0.46 µM in [3]; 0.002 µM in series [4]; greater than 10 µM in series [6]; 0.021 µM in series [7]. Moreover, the Vd in [10] came out at 2.2 L/kg. This molecule also had a clearance in series [11] of 3.5 mL/min/kg. This molecule returned a bioavailability in [1] of 23%.
With `O=C(O)C[C@@H]1CN[C@@H](c2ccc(-c3noc(-c4ccc(C5CCCC5)cc4)n3)cc2)C1` (relative stereo), the IC50 is 0.12 µM in [2]; greater than 1 µM in [3]; 0.001 µM in series [4]; greater than 10 µM in [6]; 0.068 µM in series [7].
Turning to `O=C(O)C[C@@H]1CN[C@@H](c2ccc(-c3noc(-c4ccc(C5CCCCC5)cc4)n3)cc2)C1` (relative stereo), the IC50 in [2] is 0.11 µM; in series [3] it was 3.1 µM; in [4], 0.0014 µM; in series [6] it was greater than 10 µM; in series [7], 0.057 µM. In addition, in series [12], the outcome was Active.
On to `CC(C)Cc1ccc(-c2nc(-c3ccc([C@H]4C[C@@H](CC(=O)O)CN4)cc3)no2)cc1` (relative stereo), for which, in series [9], the half-life was 10.9 h. Also, the half-maximal inhibitory concentration (IC50) is 0.16 µM in series [2]; 1.5 µM in series [3]; 0.0079 µM in series [4]; greater than 10 µM in series [6]; 0.14 µM in series [7]. Moreover, in series [10], the Vd turned out to be 2.9 L/kg. Moreover, the clearance in series [11] worked out at 3.4 mL/min/kg. The result in series [12] was Active. In addition, the bioavailability in series [1] stood at 27%.
As for `CC(C)Cc1ccc(-c2nc(-c3ccc([C@H]4C[C@H](CC(=O)O)CN4)cc3)no2)cc1` (relative stereo), the half-life in series [9] is 10.7 h. Also, the half-maximal inhibitory concentration (IC50) is 0.15 µM in [2]; greater than 1 µM in series [3]; 0.0057 µM in series [4]; greater than 10 µM in series [6]; 0.3 µM in [7]. Besides, the Vd in [10] was found to be 6.6 L/kg. The clearance in series [11] worked out at 7.4 mL/min/kg. In addition, in series [1], the bioavailability was determined as 79%.
On to `O=C(O)C[C@@H]1CN[C@@H](c2ccc(-c3noc(-c4ccc(CCC(F)(F)F)cc4)n3)cc2)C1` (relative stereo), for which the IC50 in [2] is 0.23 µM; in [3], greater than 1 µM; in series [4] it was 0.0055 µM; in series [6], greater than 10 µM; in [7], 0.05 µM.
For the molecule `O=C(O)C[C@@H]1CN[C@@H](c2ccc(-c3noc(-c4ccc([C@@H]5CCC(F)(F)C5)cc4)n3)cc2)C1` (stereo in doubt; 22f) [listing 1 of 2 here], the IC50 in series [2] was 0.032 µM; in series [3], 0.69 µM; in series [4] it was 0.0012 µM; in [6] (cho), greater than 10 µM; in [7], 0.0051 µM.
Consider `O=C(O)C[C@@H]1CN[C@@H](c2ccc(-c3noc(-c4ccc([C@@H]5CCC(F)(F)C5)cc4)n3)cc2)C1` (stereo in doubt; 22f) [listing 2 of 2 here], for which the result in series [8] was Active.
For `O=C(O)C[C@@H]1CN[C@@H](c2ccc(-c3noc(-c4ccc([C@@H]5CCC(F)(F)C5)cc4)n3)cc2)C1` (stereo in doubt; 22g) [listing 1 of 2 here], in [9], the half-life was 5.6 h. The half-inhibitory concentration (IC50) in series [2] was 0.8 µM; in [3], 1.1 µM; in series [4], 0.0008 µM; in series [6] it was greater than 10 µM; in series [7] it was 0.011 µM. In addition, in [10], the Vd came to 1.3 L/kg. The same molecule had a clearance in series [11] of 2.1 mL/min/kg. The molecule further showed a bioavailability in series [1] of 36%.
For `O=C(O)C[C@@H]1CN[C@@H](c2ccc(-c3noc(-c4ccc([C@@H]5CCC(F)(F)C5)cc4)n3)cc2)C1` (stereo in doubt; 22g) [listing 2 of 2 here], the outcome in series [8] and in series [12] was Active.
